Experimental data reported in patent US20180147177A1, “Antibacterial Compositions Comprising Copper Oxo-Hydroxide Nanoparticles and Their Uses as Biocidal Agents” (Medical Research Council, priority 2015, published 2018).

Experiments:
[1] = test system: Human dermal fibroblast cells (cell line CCD-25SK); assay: Cell proliferation of skin fibroblasts (IncuCyte confluence AUC); type: cell-based; conditions: CCD-25Sk skin fibroblasts, 48 hours
Procedure: CuCl2 and AgNO3 were also tested in parallel as positive controls. Percentage of cell confluence was determined experimentally using an IncuCyte Zoom and plotted overtime to determine the area under the curve (AUC) for each concentration tested. Cell proliferation was used as an indication for cell toxicity and was determined by normalising the AUC of cells exposed to the testing compounds against those of cells growing at normal rates (control).

E. coli MC1061 = assay: Minimum bactericidal concentration (liquid incubation, then agar plates); type: cell-based; conditions: n = 1
V. fischeri = assay: as above; type: cell-based; conditions: n = 1
B. subtilis BR151 = assay: as above; type: cell-based; conditions: n = 1
S. aureus RN4220 = assay: as above; type: cell-based; conditions: n = 1
P. aeruginosa = assay: as above; type: cell-based; conditions: n = 1
[2] = Copper release from a gel matrix (HEC gel release assay); type: physicochemical; conditions: HEC gel with 250 ppm Cu, bicarbonate solution pH 7, over 24 hours
Procedure: This assay consisted of exposing the copper-containing HEC—with specific surface area (7.1 cm^2)—to a bicarbonate buffered solution at pH 7.0±0.2, following copper concentration over time.
10 g of the gel was poured into a 50 ml falcon tube and let settle down overnight. 10 ml of a 50 mM NaHCO3 solution at pH 7±0.2 were carefully transferred on the surface of the gel. Samples were collected over 24 hours and copper concentration in the overhead solution was determined by ICP-OES (see section 2.4.1.).

[3] = Copper dispersibility in MOPS buffer pH 7.4; type: physicochemical; conditions: MOPS buffer pH 7.4±0.2, copper added up to 500 ppm
Procedure: Stock copper materials were diluted in 50 mM 3-(N-morpholino)propanesulfonic acid (MOPS) buffer at pH 7.4±0.2. Final copper concentrations varied between 10 and 500 ppm. Microparticulate copper was removed by centrifugation at 16000 g for 5 minutes. Total copper and supernatant (i.e. disperse fraction) were analysed by Inductively Coupled Plasma-Optical Emission Spectroscopy (ICP-OES) as described in section 2.4.1.

[4] = test system: Escherichia coli NCTC11100; assay: Bacterial growth inhibition assay (turbidimetric, OD 595 nm, HMM medium); type: cell-based; conditions: E. coli, no copper
Procedure: Antimicrobial activity was assessed through determination of bacterial growth inhibition in the presence of copper compounds. A turbidimetric assay was used to follow bacterial concentration over time as this is proportional to optical density (OD at 595 nm) in liquid medium, allowing an easy screening of bacterial growth over time. Escherichia coli NCTC11100 and Staphylococcus aureus RN4220 were the tested microorganisms in this assay. Stock bacterial colonies were kept in cultivated in agar plates and on the day before the experiment, one colony was transferred into 10 ml of HMM liquid medium and grown overnight at 30° C. under constant shaking (80 rpm) in an incubator. […] Copper stock solutions (refer to section 2.1) were sequentially diluted in HMM to achieve typical concentrations between 0.8 and 100 ppm Cu in a volume of 0.1 ml. Next, 0.1 ml of bacterial culture was added and incubated with copper at 30° C. under constant agitation (80 rpm). Final copper concentrations in the assay ranged between 0.4 and 50 ppm, and OD was measured every hour for a typical period of 7-8 hours to follow bacterial growth. OD background, i.e. OD absorbance not caused by bacteria, was determined to remove readout interference from copper and broth. Growth inhibition was calculated as follows: […]

## O=[N+]([O-])[O-].[Ag+] [AgNO3]
[1]
  concentration from which cell proliferation decreased: ≥ 10000 ng/mL

## O.O.[Cl][Cu][Cl] [CuCl2, CuCl2.2H2O]
E. coli MC1061; 4 h incubation
  MBC: 100 ppm Cu
E. coli MC1061; 24 h incubation
  MBC: 50 ppm Cu
E. coli MC1061; 48 h incubation
  MBC: 10 ppm Cu
E. coli MC1061; 72 h incubation
  MBC: 50 ppm Cu
E. coli MC1061; 96 h incubation
  MBC: 50 ppm Cu
V. fischeri; 4 h incubation
  MBC: 100 ppm Cu
V. fischeri; 24 h incubation
  MBC: 100 ppm Cu
V. fischeri; 48 h incubation
  MBC: >100 ppm Cu
V. fischeri; 72 h incubation
  MBC: >100 ppm Cu
V. fischeri; 96 h incubation
  MBC: >100 ppm Cu
B. subtilis BR151; 4 h incubation
  MBC: >100 ppm Cu
B. subtilis BR151; 24 h incubation
  MBC: >100 ppm Cu
B. subtilis BR151; 48 h incubation
  MBC: >100 ppm Cu
B. subtilis BR151; 72 h incubation
  MBC: >100 ppm Cu
B. subtilis BR151; 96 h incubation
  MBC: >100 ppm Cu
S. aureus RN4220; 4 h incubation
  MBC: 100 ppm Cu
S. aureus RN4220; 24 h incubation
  MBC: 50 ppm Cu
S. aureus RN4220; 48 h incubation
  MBC: 50 ppm Cu
S. aureus RN4220; 72 h incubation
  MBC: 50 ppm Cu
S. aureus RN4220; 96 h incubation
  MBC: 50 ppm Cu
P. aeruginosa; 4 h incubation
  MBC: 100 ppm Cu
P. aeruginosa; 24 h incubation
  MBC: 100 ppm Cu
P. aeruginosa; 48 h incubation
  MBC: 100 ppm Cu
P. aeruginosa; 72 h incubation
  MBC: 100 ppm Cu
P. aeruginosa; 96 h incubation
  MBC: 100 ppm Cu
[1]
  concentration from which cell proliferation decreased: ≥ 50000 ng/mL
[2]
  Cu released from HEC matrix: ≤ 10 ppm
[3]
  dispersible fraction (maximum): ca. 10 ppm of Cu

## O.O.O=C([O-])CN(CCN(CC(=O)[O-])CC(=O)O)CC(=O)O.[Na+].[Na+] [EDTA, disodium ethylenediaminetetraacetate (EDTA) di-hydrate]
[4]
  antibacterial effect of the complexing agent alone (in words): had antibacterial effect
